Measured values taken from ChEMBL document CHEMBL3879888, “2,4,6-triamino-1,3,5-triazine derivative” (2008).
The source made the active and inactive calls. The rule behind the calls is not given here.

Molecular target: T1, Voltage-gated inwardly rectifying potassium channel KCNH3 (Homo sapiens) (UniProt Q9ULD8)
T1 sequence (whole entry): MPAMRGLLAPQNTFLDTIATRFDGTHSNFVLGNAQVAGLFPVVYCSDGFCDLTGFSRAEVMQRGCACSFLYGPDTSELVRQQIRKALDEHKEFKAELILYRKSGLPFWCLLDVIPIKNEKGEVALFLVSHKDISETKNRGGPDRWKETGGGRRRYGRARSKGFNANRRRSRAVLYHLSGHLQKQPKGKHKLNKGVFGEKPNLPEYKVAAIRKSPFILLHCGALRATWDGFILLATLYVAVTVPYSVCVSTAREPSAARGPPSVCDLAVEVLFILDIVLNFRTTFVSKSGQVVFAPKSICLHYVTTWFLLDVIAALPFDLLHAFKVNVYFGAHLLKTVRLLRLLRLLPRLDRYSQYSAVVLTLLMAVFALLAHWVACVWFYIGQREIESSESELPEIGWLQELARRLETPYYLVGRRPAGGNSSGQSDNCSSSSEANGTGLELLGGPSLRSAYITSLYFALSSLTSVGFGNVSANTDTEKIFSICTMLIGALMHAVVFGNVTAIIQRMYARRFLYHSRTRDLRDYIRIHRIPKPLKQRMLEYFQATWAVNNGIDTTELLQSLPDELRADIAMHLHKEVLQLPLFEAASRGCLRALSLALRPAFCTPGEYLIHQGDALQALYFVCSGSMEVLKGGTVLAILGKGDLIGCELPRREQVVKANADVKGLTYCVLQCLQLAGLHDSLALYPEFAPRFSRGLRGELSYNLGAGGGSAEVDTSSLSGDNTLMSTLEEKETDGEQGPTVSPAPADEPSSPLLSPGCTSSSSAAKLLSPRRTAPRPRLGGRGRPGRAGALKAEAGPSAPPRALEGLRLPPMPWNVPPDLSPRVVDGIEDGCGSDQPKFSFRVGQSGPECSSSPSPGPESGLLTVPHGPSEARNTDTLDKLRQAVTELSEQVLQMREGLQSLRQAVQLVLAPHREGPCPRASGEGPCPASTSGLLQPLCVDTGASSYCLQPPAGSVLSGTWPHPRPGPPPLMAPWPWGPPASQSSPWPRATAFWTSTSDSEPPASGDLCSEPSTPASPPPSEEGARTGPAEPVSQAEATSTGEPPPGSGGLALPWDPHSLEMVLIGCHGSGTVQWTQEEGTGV
Experiment: Inhibition of BEC1 (unknown origin) expressed in dihydrofolate reductase-deficient CHO cells assessed as decrease in KCl-induced intracellular 86Rb ion release at 3 uM after 20 mins relative to control
Assay type: cell-based

Row | SMILES | inhibition
1 | CSC1COC[C@H]1Nc1nc(Nc2ccccc2)nc(Nc2ccccc2)n1 (stereo partly drawn) | 49%
2 | CC(C)Nc1nc(Nc2ccc3c(c2)OCCO3)nc(Nc2ccc3c(c2)OCCO3)n1 | 11%
3 | c1ccc(Nc2nc(Nc3ccccc3)nc(NC3CCCC3)n2)cc1 | 19%
4 | c1ccc(Nc2nc(NCC3CC3)nc(Nc3ccccc3)n2)cc1 | 51%
5 | O=[N+]([O-])c1ccc(CCNc2nc(Nc3ccccc3)nc(Nc3ccccc3)n2)cc1 | 33%
6 | COc1ccc(CNc2nc(Nc3ccccc3)nc(Nc3ccccc3)n2)cc1 | 31%
7 | CC(C)Nc1nc(Nc2ccccc2)nc(Nc2ccc(F)cc2)n1 | 25%
8 | O=C1NCCCCC1Nc1nc(Nc2ccccc2)nc(Nc2ccccc2)n1 (stereo not drawn) | 23%
9 | NC(=O)CNc1nc(Nc2ccccc2)nc(Nc2ccccc2)n1 | 22%
10 | CSC1CCC[C@H]1Nc1nc(Nc2ccccc2)nc(Nc2ccccc2)n1 (stereo partly drawn) | 34%
11 | CC(C)Nc1nc(Nc2ccccc2)nc(Nc2ccc(Br)cc2)n1 | 27%
12 | C=CCNc1nc(Nc2ccccc2)nc(Nc2ccccc2)n1 | 44%
13 | O=C1NCCCC[C@@H]1Nc1nc(Nc2ccccc2)nc(Nc2ccccc2)n1 | 10%
14 | CCOC(=O)C(C)Nc1nc(Nc2ccccc2)nc(Nc2ccccc2)n1 (stereo not drawn) | 36%
15 | OC1CCCCC1Nc1nc(Nc2ccccc2)nc(Nc2ccccc2)n1 (stereo not drawn) | 23%
16 | OC[C@@H](CNc1nc(Nc2ccccc2)nc(Nc2ccccc2)n1)c1ccccc1 | 50%
17 | Clc1ccc(CNc2nc(Nc3ccccc3)nc(Nc3ccccc3)n2)cc1 | 45%
18 | Cc1cnc(CNc2nc(Nc3ccccc3)nc(Nc3ccccc3)n2)cn1 | 29%
19 | CC(C)Nc1nc(Nc2ccccc2)nc(Nc2ccc3c(c2)CCC3)n1 | 18%
20 | CCOC(=O)CNc1nc(Nc2ccccc2)nc(Nc2ccccc2)n1 | 21%
21 | CSc1ccc(Nc2nc(Nc3ccc(SC)cc3)nc(NC(C)C)n2)cc1 | 10%
22 | CC(C)Nc1nc(Nc2ccc(Br)cc2)nc(Nc2ccc(Br)cc2)n1 | 11%
23 | c1ccc(Nc2nc(NCCc3cccs3)nc(Nc3ccccc3)n2)cc1 | 10%
24 | c1ccc(Nc2nc(NCc3cccnc3)nc(Nc3ccccc3)n2)cc1 | 59%
25 | CCOC(=O)CCCNc1nc(Nc2ccccc2)nc(Nc2ccccc2)n1 | 29%

Next, values leading:

Row | inhibition | SMILES
26 | 12% | O=[N+]([O-])c1cccc(Nc2nc(Nc3ccccc3)nc(Nc3ccccc3)n2)c1
27 | 15% | c1ccc(Nc2nc(Nc3ccccc3)nc(Nc3ccc4c(c3)OCCO4)n2)cc1
28 | 31% | Cc1cc(O)ccc1Nc1nc(Nc2ccccc2)nc(Nc2ccccc2)n1
29 | 22% | Cc1ccc([N+](=O)[O-])cc1Nc1nc(Nc2ccccc2)nc(Nc2ccccc2)n1
30 | 17% | CSc1ccccc1Nc1nc(Nc2ccccc2)nc(Nc2ccccc2)n1
31 | 40% | CC(C)Nc1nc(Nc2ccccc2)nc(Nc2ccc3c(c2)OCCO3)n1
32 | 37% | Cc1c(O)cccc1Nc1nc(Nc2ccccc2)nc(Nc2ccccc2)n1
33 | 34% | Fc1cccc(CNc2nc(Nc3ccccc3)nc(Nc3ccccc3)n2)c1
34 | 35% | Cc1ccc(CNc2nc(Nc3ccccc3)nc(Nc3ccccc3)n2)cc1
35 | 33% | Brc1ccc(CNc2nc(Nc3ccccc3)nc(Nc3ccccc3)n2)cc1
36 | 33% | Fc1ccccc1CNc1nc(Nc2ccccc2)nc(Nc2ccccc2)n1
37 | 40% | OCCc1ccccc1Nc1nc(Nc2ccccc2)nc(Nc2ccccc2)n1

Tested on: Mus musculus
Experiment: Inhibition of electroconvulsive shock-induced amnesia in ddy mouse at 3 mg/kg, ip by passive avoidance test
Assay type: functional, organism-based

Row | SMILES | inhibition
38 | Fc1ccc(Nc2nc(NCc3ccnc(F)c3)nc(Nc3ccccc3)n2)cc1 | Active
